Test results reported in ChEMBL document CHEMBL5143515, “Identification of new halogen-containing 2,4-diphenyl indenopyridin-5-one derivative as a boosting agent for the anticancer responses of clinically available topoisomerase inhibitors” (Eur J Med Chem, 2022).
Counter-ions that a name gives are not always drawn.

Tests used:
[1] = target: T1, DNA topoisomerase 1 (Homo sapiens) (UniProt P11387); test: Inhibition of recombinant human topoisomerase 1 assessed as relaxation of supercoiled plasmid pBR322 DNA at 100 uM by agarose gel electrophoresis (reference value: 90.6%)
T1 sequence (whole entry): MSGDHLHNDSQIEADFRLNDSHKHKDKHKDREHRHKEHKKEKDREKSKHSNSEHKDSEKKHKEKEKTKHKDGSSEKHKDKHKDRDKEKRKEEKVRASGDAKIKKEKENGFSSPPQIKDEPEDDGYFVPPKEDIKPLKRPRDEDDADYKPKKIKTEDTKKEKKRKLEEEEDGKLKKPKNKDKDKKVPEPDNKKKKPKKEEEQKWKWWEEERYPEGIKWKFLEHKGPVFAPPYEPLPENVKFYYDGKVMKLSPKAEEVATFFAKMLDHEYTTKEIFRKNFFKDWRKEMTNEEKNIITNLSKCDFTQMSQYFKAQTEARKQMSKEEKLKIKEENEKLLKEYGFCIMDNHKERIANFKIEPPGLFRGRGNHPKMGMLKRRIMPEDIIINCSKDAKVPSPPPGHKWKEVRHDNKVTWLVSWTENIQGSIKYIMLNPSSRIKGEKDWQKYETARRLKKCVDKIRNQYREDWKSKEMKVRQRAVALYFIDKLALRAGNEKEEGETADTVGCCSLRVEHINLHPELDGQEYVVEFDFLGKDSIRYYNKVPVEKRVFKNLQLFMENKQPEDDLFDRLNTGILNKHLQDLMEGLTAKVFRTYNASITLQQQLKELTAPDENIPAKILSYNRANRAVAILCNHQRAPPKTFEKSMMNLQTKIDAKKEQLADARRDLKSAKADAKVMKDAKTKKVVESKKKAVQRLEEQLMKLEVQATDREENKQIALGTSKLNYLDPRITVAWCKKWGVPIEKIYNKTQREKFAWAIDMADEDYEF

[2] = target: DNA topoisomerase 2-alpha (Homo sapiens) (UniProt P11388); test: Inhibition of recombinant human topoisomerase 2alpha assessed as relaxation of supercoiled plasmid pBR322 DNA at 100 uM by agarose gel electrophoresis (reference value: […]%)
DNA topoisomerase 2-alpha (Homo sapiens), sequence (P11388 whole entry): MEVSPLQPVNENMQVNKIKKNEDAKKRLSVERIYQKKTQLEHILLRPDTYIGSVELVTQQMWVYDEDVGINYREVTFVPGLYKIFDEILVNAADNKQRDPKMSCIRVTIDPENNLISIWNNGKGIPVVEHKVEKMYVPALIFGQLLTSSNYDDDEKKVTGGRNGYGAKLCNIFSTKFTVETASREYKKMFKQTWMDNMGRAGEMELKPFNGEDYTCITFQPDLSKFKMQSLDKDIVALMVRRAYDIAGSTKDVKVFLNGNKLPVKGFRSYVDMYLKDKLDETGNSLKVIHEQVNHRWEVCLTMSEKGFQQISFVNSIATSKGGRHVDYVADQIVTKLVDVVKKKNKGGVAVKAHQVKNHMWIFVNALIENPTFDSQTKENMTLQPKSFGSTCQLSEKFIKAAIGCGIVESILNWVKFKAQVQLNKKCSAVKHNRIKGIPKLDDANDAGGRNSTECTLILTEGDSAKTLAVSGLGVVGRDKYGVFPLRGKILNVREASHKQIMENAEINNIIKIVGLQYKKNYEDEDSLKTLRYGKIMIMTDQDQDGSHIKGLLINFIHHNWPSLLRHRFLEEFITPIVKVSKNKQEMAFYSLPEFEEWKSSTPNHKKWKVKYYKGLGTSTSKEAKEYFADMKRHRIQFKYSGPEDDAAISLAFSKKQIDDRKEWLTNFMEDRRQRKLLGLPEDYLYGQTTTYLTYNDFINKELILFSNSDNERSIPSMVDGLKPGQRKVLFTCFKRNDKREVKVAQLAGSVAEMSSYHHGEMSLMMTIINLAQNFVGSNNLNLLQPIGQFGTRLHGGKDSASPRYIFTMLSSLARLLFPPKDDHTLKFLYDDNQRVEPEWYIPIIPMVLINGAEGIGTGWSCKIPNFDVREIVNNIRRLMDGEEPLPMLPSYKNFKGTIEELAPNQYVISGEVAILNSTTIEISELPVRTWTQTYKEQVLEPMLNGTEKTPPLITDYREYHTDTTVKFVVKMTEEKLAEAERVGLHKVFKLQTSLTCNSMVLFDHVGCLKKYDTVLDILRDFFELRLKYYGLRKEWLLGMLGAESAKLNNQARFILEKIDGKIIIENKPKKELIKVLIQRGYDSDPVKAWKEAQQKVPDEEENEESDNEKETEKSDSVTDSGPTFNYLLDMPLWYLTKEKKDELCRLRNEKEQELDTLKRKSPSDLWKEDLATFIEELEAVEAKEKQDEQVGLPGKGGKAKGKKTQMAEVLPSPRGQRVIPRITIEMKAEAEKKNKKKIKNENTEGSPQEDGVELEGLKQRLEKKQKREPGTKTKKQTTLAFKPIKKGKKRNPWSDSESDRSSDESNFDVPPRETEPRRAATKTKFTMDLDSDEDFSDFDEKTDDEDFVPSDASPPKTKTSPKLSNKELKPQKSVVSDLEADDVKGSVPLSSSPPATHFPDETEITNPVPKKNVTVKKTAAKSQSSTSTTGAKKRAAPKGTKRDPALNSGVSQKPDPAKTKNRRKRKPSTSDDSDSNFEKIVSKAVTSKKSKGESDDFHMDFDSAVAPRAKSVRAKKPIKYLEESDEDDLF

DU-145 = test: Antiproliferative activity against human DU-145 cells after 72 hrs by EZ-Cytox colorimetric assay; type: functional, cell-based; settings: DU-145, 72 h
HCT-15 = test: Antiproliferative activity against human HCT-15 cells after 72 hrs by EZ-Cytox colorimetric assay; type: functional, cell-based; settings: HCT-15, 72 h
HeLa = test: Antiproliferative activity against human HeLa cells after 72 hrs by EZ-Cytox colorimetric assay; type: functional, cell-based
T47D = test: Antiproliferative activity against human T47D cells after 72 hrs by EZ-Cytox colorimetric assay; type: functional, cell-based
[3] = target: T1, DNA topoisomerase 1 (Homo sapiens); test: Inhibition of recombinant human topoisomerase 1 assessed as relaxation of supercoiled plasmid pBR322 DNA at 100 uM by agarose gel electrophoresis (reference value: […]%)
[4] = target: DNA topoisomerase 2-alpha (Homo sapiens) (UniProt P11388); test: Inhibition of recombinant human topoisomerase 2alpha assessed as relaxation of supercoiled plasmid pBR322 DNA at 100 uM by agarose gel electrophoresis (reference value: 84.9%)
[5] = target: DNA topoisomerase 2-alpha (Homo sapiens) (UniProt P11388); test: Inhibition of recombinant human topoisomerase 2alpha assessed as relaxation of supercoiled plasmid pBR322 DNA at 20 uM by agarose gel electrophoresis relative to control
[6] = target: T1, DNA topoisomerase 1 (Homo sapiens); test: Inhibition of recombinant human topoisomerase 1 assessed as relaxation of supercoiled plasmid pBR322 DNA at 100 uM by agarose gel electrophoresis (reference value: 81.9%)
[7] = target: T1, DNA topoisomerase 1 (Homo sapiens); test: Inhibition of recombinant human topoisomerase 1 assessed as relaxation of supercoiled plasmid pBR322 DNA at 20 uM by agarose gel electrophoresis (reference value: 38.3%)
[8] = target: DNA topoisomerase 2-alpha (Homo sapiens) (UniProt P11388); test: Inhibition of recombinant human topoisomerase 2alpha assessed as relaxation of supercoiled plasmid pBR322 DNA at 100 uM by agarose gel electrophoresis (reference value: 81%)
[9] = target: DNA topoisomerase 2-alpha (Homo sapiens) (UniProt P11388); test: Inhibition of recombinant human topoisomerase 2alpha assessed as relaxation of supercoiled plasmid pBR322 DNA at 20 uM by agarose gel electrophoresis (reference value: […]%)
[10] = target: T1, DNA topoisomerase 1 (Homo sapiens); test: Inhibition of recombinant human topoisomerase 1 assessed as relaxation of supercoiled plasmid pBR322 DNA at 100 uM by agarose gel electrophoresis (reference value: 83.2%)
[11] = target: T1, DNA topoisomerase 1 (Homo sapiens); test: Inhibition of recombinant human topoisomerase 1 assessed as relaxation of supercoiled plasmid pBR322 DNA at 20 uM by agarose gel electrophoresis (reference value: 40.4%)
[12] = target: DNA topoisomerase 2-alpha (Homo sapiens) (UniProt P11388); test: Inhibition of recombinant human topoisomerase 2alpha assessed as relaxation of supercoiled plasmid pBR322 DNA at 100 uM by agarose gel electrophoresis (reference value: 82.2%)
[13] = target: DNA topoisomerase 2-alpha (Homo sapiens) (UniProt P11388); test: Inhibition of recombinant human topoisomerase 2alpha assessed as relaxation of supercoiled plasmid pBR322 DNA at 20 uM by agarose gel electrophoresis (reference value: 48.4%)

| Compound | inhibition [1] [%] | inhibition [2] [%] | inhibition [3] [%] | inhibition [4] [%] | inhibition [5] [%] | inhibition [6] [%] | inhibition [7] [%] | inhibition [8] [%] | inhibition [9] [%] | inhibition [10] [%] | inhibition [11] [%] | inhibition [12] [%] | inhibition [13] [%] | IC50 (DU-145) [µM] | IC50 (HCT-15) [µM] | IC50 (HeLa) [µM] | IC50 (T47D) [µM] |
| --- | --- | --- | --- | --- | --- | --- | --- | --- | --- | --- | --- | --- | --- | --- | --- | --- | --- |
| O=C1c2ccccc2-c2nc(-c3ccccc3C(F)(F)F)cc(-c3ccccc3)c21 |  |  |  |  |  | 45 | 15.6 | 83.1 | 0.9 |  |  |  |  | 34 | > 50 | > 50 | > 50 |
| OC1c2ccccc2-c2nc(-c3cccc(OC(F)(F)F)c3)cc(-c3ccccc3)c21 (centres undefined) |  |  | 18.3 | 66.7 | 12.2 |  |  |  |  |  |  |  |  | > 50 | > 50 | > 50 | 14.8 |
| O=C1c2ccccc2-c2nc(-c3ccccc3Br)cc(-c3ccccc3)c21 |  |  |  |  |  |  |  |  |  | 82.9 | 0 | 93.4 | 60.4 | 8.42 | > 50 | > 50 | > 50 |
| OC1c2ccccc2-c2nc(-c3ccc(C(F)(F)F)cc3)cc(-c3ccccc3)c21 (centres undefined) |  |  | 13.8 | 51.2 | 9.9 |  |  |  |  |  |  |  |  | 338 | > 50 | > 50 | 24.8 |
| O=C1c2ccccc2-c2nc(-c3ccc(F)cc3)cc(-c3ccccc3)c21 |  |  |  |  |  |  |  |  |  | 34.7 | 0 | 36.9 | 2.5 | 20.7 | 33.3 | > 50 | > 50 |
| O=C1c2ccccc2-c2nc(-c3cccc(C(F)(F)F)c3)cc(-c3ccccc3)c21 |  |  |  |  |  | 81.9 | 22.5 | 92.2 | 3.4 |  |  |  |  | 15.2 | 21.5 | > 50 | > 50 |
| OC1c2ccccc2-c2nc(-c3ccccc3F)cc(-c3ccccc3)c21 (centres undefined) | 6.7 | 0 |  |  |  |  |  |  |  |  |  |  |  | > 50 | > 50 | > 50 | > 50 |
| O=C1c2ccccc2-c2nc(-c3cccc(Cl)c3)cc(-c3ccccc3)c21 |  |  |  |  |  |  |  |  |  | 85.7 | 0 | 98.1 | 89.2 | 14.4 | 23.4 | > 50 | > 50 |
| O=C1c2ccccc2-c2nc(-c3cccc(Br)c3)cc(-c3ccccc3)c21 |  |  |  |  |  |  |  |  |  | 82.9 | 0 | 83.8 | 5.3 | 9.48 | 17.9 | 20.2 | 28 |
| O=C1c2ccccc2-c2nc(-c3cccc(F)c3)cc(-c3ccccc3)c21 |  |  |  |  |  |  |  |  |  | 34.2 | 0 | 0 |  | > 50 | > 50 | > 50 | > 50 |
| O=C1c2ccccc2-c2nc(-c3cccc(OC(F)(F)F)c3)cc(-c3ccccc3)c21 |  |  |  |  |  | 100 | 8.5 | 0.5 |  |  |  |  |  | 17.8 | 27.6 | > 50 | 16.8 |
| COc1cccc2c1C(=O)c1c(O)c3c(c(O)c1C2=O)C[C@@](O)(C(=O)CO)C[C@@H]3O[C@H]1C[C@H](N)[C@H](O)[C@H](C)O1 [DOXORUBICIN HYDROCHLORIDE] |  |  |  |  |  |  |  |  |  |  |  |  |  | 2.99 | 136 | 1.36 | 1.48 |
| O=C1c2ccccc2-c2nc(-c3ccccc3Cl)cc(-c3ccccc3)c21 |  |  |  |  |  |  |  |  |  | 66.7 | 0 | 93.3 | 71.8 | > 50 | > 50 | > 50 | > 50 |

Continued, in another order:

| inhibition [1] [%] | inhibition [2] [%] | inhibition [3] [%] | inhibition [4] [%] | inhibition [5] [%] | inhibition [6] [%] | inhibition [7] [%] | inhibition [8] [%] | inhibition [9] [%] | inhibition [10] [%] | inhibition [11] [%] | inhibition [12] [%] | inhibition [13] [%] | Compound | IC50 (DU-145) [µM] | IC50 (HCT-15) [µM] | IC50 (HeLa) [µM] | IC50 (T47D) [µM] |
| --- | --- | --- | --- | --- | --- | --- | --- | --- | --- | --- | --- | --- | --- | --- | --- | --- | --- |
| 6.3 | 0 |  |  |  |  |  |  |  |  |  |  |  | OC1c2ccccc2-c2nc(-c3ccc(Cl)cc3)cc(-c3ccccc3)c21 (centres undefined) | 35.1 | > 50 | > 50 | > 50 |
|  |  | 26.8 | 61.2 | 8.7 |  |  |  |  |  |  |  |  | OC1c2ccccc2-c2nc(-c3ccc(OC(F)(F)F)cc3)cc(-c3ccccc3)c21 (centres undefined) | > 50 | > 50 | > 50 | > 50 |
|  |  | 25.9 | 57.3 | 9.3 |  |  |  |  |  |  |  |  | OC1c2ccccc2-c2nc(-c3cccc(C(F)(F)F)c3)cc(-c3ccccc3)c21 (centres undefined) | > 50 | > 50 | > 50 | > 50 |
|  |  |  |  |  | 35 | 0 | 0.6 |  |  |  |  |  | O=C1c2ccccc2-c2nc(-c3ccccc3OC(F)(F)F)cc(-c3ccccc3)c21 | 10.7 | 14.7 | > 50 | > 50 |
|  |  | 7.2 | 52.2 | 8.1 |  |  |  |  |  |  |  |  | OC1c2ccccc2-c2nc(-c3ccccc3C(F)(F)F)cc(-c3ccccc3)c21 (centres undefined) | > 50 | > 50 | > 50 | > 50 |
|  |  |  |  |  |  |  |  |  | 26.7 |  | 0 |  | O=C1c2ccccc2-c2nc(-c3ccccc3F)cc(-c3ccccc3)c21 | > 50 | 49.2 | > 50 | > 50 |
|  |  |  |  |  |  |  |  |  | 80.4 | 0 | 91.3 | 60 | O=C1c2ccccc2-c2nc(-c3ccc(Cl)cc3)cc(-c3ccccc3)c21 | 5.76 | > 50 | > 50 | > 50 |
| 10.5 | 0 |  |  |  |  |  |  |  |  |  |  |  | OC1c2ccccc2-c2nc(-c3ccc(Br)cc3)cc(-c3ccccc3)c21 (centres undefined) | 2.11 | > 50 | > 50 | 28.7 |
| 7.6 | 0 |  |  |  |  |  |  |  |  |  |  |  | OC1c2ccccc2-c2nc(-c3ccccc3Cl)cc(-c3ccccc3)c21 (centres undefined) | 0.41 | 3.37 | 10.4 | 1.48 |
| 6.1 | 0 |  |  |  |  |  |  |  |  |  |  |  | OC1c2ccccc2-c2nc(-c3cccc(F)c3)cc(-c3ccccc3)c21 (centres undefined) | > 50 | > 50 | > 50 | > 50 |
| 12.6 | 0.2 |  |  |  |  |  |  |  |  |  |  |  | OC1c2ccccc2-c2nc(-c3ccccc3Br)cc(-c3ccccc3)c21 (centres undefined) | 6.48 | 7.03 | 16 | 1.55 |
| 7.1 | 0 |  |  |  |  |  |  |  |  |  |  |  | OC1c2ccccc2-c2nc(-c3ccc(F)cc3)cc(-c3ccccc3)c21 (centres undefined) | > 50 | > 50 | > 50 | > 50 |
| 7.6 | 0 |  |  |  |  |  |  |  |  |  |  |  | OC1c2ccccc2-c2nc(-c3cccc(Cl)c3)cc(-c3ccccc3)c21 (centres undefined) | > 50 | > 50 | > 50 | > 50 |
|  |  |  |  |  | 89.8 | 8.1 | 57.2 | 0.3 |  |  |  |  | O=C1c2ccccc2-c2nc(-c3ccc(C(F)(F)F)cc3)cc(-c3ccccc3)c21 | 42.2 | 20.5 | > 50 | > 50 |
| 8.6 | 0 |  |  |  |  |  |  |  |  |  |  |  | OC1c2ccccc2-c2nc(-c3cccc(Br)c3)cc(-c3ccccc3)c21 (centres undefined) | 43.2 | > 50 | > 50 | > 50 |
|  |  |  |  |  | 34.3 | 3.7 | 6.5 |  |  |  |  |  | O=C1c2ccccc2-c2nc(-c3ccc(OC(F)(F)F)cc3)cc(-c3ccccc3)c21 | 9.63 | 9.7 | 35.5 | 2.69 |
